“Also recorded” adds a separate entry of the source.
Key:
[1] = intraperitoneal administration to female ddY mice in this test; cited from earlier work
erythrocyte membrane = test: Inhibition of tert-butyl hydroperoxide-induced peroxidation of erythrocyte membrane (thiobarbituric acid); assay type: biochemical, human; settings: for amount of lipid peroxide / formation of peroxide: human red ghost, tert-butyl hydroperoxide, 37° C., 30 minutes, 535 nm (FIG. 1)
Source text: Human blood cells were subjected to hemolysis and red ghost (membrane segments containing hemoglobin) was collected by a centrifuging machine. […] The reaction product was quantitatively determined by colorimetry at 535 nm.

[2] = Oxidation of the reducing agent by tert-butyl hydroperoxide (absorption intensity); assay type: physicochemical; settings: addition of tert-butyl hydroperoxide
ddY strain mice [3] = test: Reducing toxicity of Adriamycin: survival days of mice; assay type: in vivo, mouse (female ddY strain); settings: after Adriamycin; for prolongation of survival days: conclusion; for incidence of death versus control group: vitamin E 200 mg/kg i.p. 4 times or R-345 30 mg/kg i.p. 4 times
ddY strain mice [4] = test: Reducing radiation injury (X rays 800 roentgen): survival days of mice; assay type: in vivo, mouse (female ddY strain); settings: for mice survived longer than 30 days / mice survived on Day 15 / average number of survival days: X rays 800 roentgen, FIG. 3; for mice survived longer than 30 days: 20 mice, R-345 285 mg/kg i.v. and/or vitamin E 200 mg/kg i.m.; for mice survived on Day 15: R-345 285 mg/kg i.v. 3 times and/or vitamin E 200 mg/kg i.m. 3 times; for average number of survival days: survival longer than 30 days counted as 30 days, control 8.7 days
Method: Female ddY strain mice of 4 week age having a mean body weight of 25 g were exposed to X rays of 800 roentgen to examine the number of survival days (dose of LD50 for 30 days was 407 to 466 roentgen).
R-345 (285 mg/kg) was intravenously administered through the tail immediately before exposure to radiation, and on Days 1 and 3 (3 times in total). […] With respect to a mouse survived longer than 30 days, the number of survival days was counted as 30 days to determine the average number of survival days.
Vitamin E (200 mg/kg) was intramuscularly administered 3 days and 1 day before exposure to radiation, and immediately before the exposure (3 times in total).

liver = test: Reducing liver toxicity by organic halogen compounds (CCl4 :CHCl3); assay type: in vivo, mouse (female ddY strain); settings: for TBA value (lipid peroxide) in liver: Day 1 after CCl4 :CHCl3, FIG. 4a; for calcium content in liver: over 3 days after CCl4 :CHCl3, FIG. 4b
Method: In liquid paraffin were dissolved 0.0025 ml of carbon tetrachloride (CCl4) and 0.0050 ml of chloroform (CHCl3) to form 0.1 ml of a solution. The solution was intraperitoneally administered to female ddY strain mice of 4 week age having a mean body weight of 25 g. With passage of day, concentration of lipid peroxide (TBA value, by thiobarbituric acid reaction), calcium concentration and a ratio of saturated fatty acids to unsaturated fatty acids (as an index of fatty liver), in liver were measured over 3 days. […] Ascorbic acid (AsA) and R-345 (4 mg each was dissolved in 0.1 ml of physiological saline, respectively) were intraperitoneally administered once a day every day from 6 hours after CCl4 :CHCl3 was administered to the day before the mice were sacrificed.

ddY strain mice [5] = test: Recovery from hyperglycemia in Alloxan-induced diabetes; assay type: in vivo, mouse (female ddY strain); settings: one week after Alloxan 80 mg/kg i.v.; FIG. 5
Method: After Alloxan (80 mg/kg) was intravenously administered to female ddY strain mice of 4 week age showing a mean body weight of 25 g, 0.2 ml of vitamin E solution (dissolved in liquid paraffin in a concentration of 5%) was intramuscularly injected per mouse once a day from the next day and 0.2 ml of R-345 (dissolved in physiological saline in a concentration of 2 wt %) was intraperitoneally injected. In the control group, 0.2 ml of physiological saline was intraperitoneally injected per mouse. Blood sugar level was measured one week after administration of Alloxan.

Stability in water = assay type: physicochemical

Molecule: COc1cccc2c1C(=O)c1c(O)c3c(c(O)c1C2=O)C[C@@](O)(C(=O)CO)C[C@@H]3O[C@H]1C[C@H](N)[C@H](O)[C@H](C)O1 [Adriamycin]
- LD50 [1]: 14 mg/kg

Molecule: O=C1OC(CO)C(=O)C(O)=C1O (centres unmarked) [R-345, 2,3,6-trihydroxy-4-oxo-2-hexen-5-olide]
- activity of alleviating erythrocyte membrane disturbance induced by a peroxidant, versus ascorbic acid (erythrocyte membrane; conclusion): more effective than ascorbic acid
- amount of lipid peroxide / formation of peroxide (erythrocyte membrane): exhibited the activity of inhibiting the formation of peroxide
- oxidation by tert-butyl hydroperoxide [2]: hardly oxidized
- reduction in absorption intensity at 345 nm [2]: slight
- mice survived longer than 50 days (ddY strain mice [3]; i.p., 10 mice, R-345 30 mg/kg and/or vitamin E 200 mg/kg, FIG. 2): 2 mice
- mice died up to about Day 20 (ddY strain mice [3]; R-345 30 mg/kg i.p. 4 times, FIG. 2b): 8 out of 10
- prolongation of survival days (ddY strain mice [3]): only a slight prolongation
- incidence of death versus control group (ddY strain mice [3]): a slight difference was observed
- increase in average number of survival days compared with the control group (ddY strain mice [4]; R-345 285 mg/kg i.v. 3 times): slight increase
- mice survived longer than 30 days (ddY strain mice [4]): 2 mice
- mice survived on Day 15 (ddY strain mice [4]): 3 out of 20
- average number of survival days (ddY strain mice [4]): 12.9 days
- TBA value (lipid peroxide) in liver (liver): almost the same as in the control group
- increase in TBA value, calcium content and increase in neutral fat versus control group or vitamin E alone (liver; conclusion): reduced as compared to the control group or the group administered with vitamin E alone
- calcium content in liver (liver): almost recovered to normal level
- blood sugar level (ddY strain mice [5]): somewhat higher than normal level
- decomposition in water over a long period of time (Stability in water): tends to be decomposed some or less

Molecule: O=C1O[C@H]([C@@H](O)CO)C(O)=C1O [ascorbic acid]
- amount of lipid peroxide / formation of peroxide (erythrocyte membrane): increased
- oxidation by tert-butyl hydroperoxide [2]: immediately oxidized
- reduction in absorption intensity at 265 nm [2]: markedly reduced
- TBA value (lipid peroxide) in liver (liver): particularly high TBA value was noted in some cases
- TBA value (lipid peroxide) in liver (liver; listed as AsA): some were higher than in the group administered with physiological saline (control group)
- calcium content in liver (liver): not lowered to normal level

Molecule: vitamin E
- amount of lipid peroxide / formation of peroxide (erythrocyte membrane): exhibited the activity of inhibiting the formation of peroxide
- prolongation of survival days (ddY strain mice [3]): only a slight prolongation
- incidence of death versus control group (ddY strain mice [3]): almost the same incidence as noted with the control group
- mice survived longer than 31 days (ddY strain mice [3]; vitamin E 200 mg/kg i.p. 4 times, FIG. 2c): None
- mice survived longer than 30 days (ddY strain mice [4]): 2 mice
- mice survived on Day 15 (ddY strain mice [4]): 2 out of 20
- average number of survival days (ddY strain mice [4]): 11.8 days
- prevention of increase in TBA value (lipid peroxide level) (liver; CCl4 :CHCl3): effect of preventing increase in TBA value (lipid peroxide level) was noted
- prevention of increase of calcium level (liver; CCl4 :CHCl3): not noted
- prevention of increase in TBA value (lipid peroxide level) (liver; CCl4 :CHCl3, listed as VE): effective for preventing the increase in TBA value; also recorded: prevented an increase in TBA value
- recovery of ratio of saturated fatty acid to unsaturated fatty acid in liver (liver; Day 2 after CCl4 :CHCl3, FIG. 4c): recovery would be slower than in the group administered with no VE
- recovery to normal level of calcium content on Day 3 (liver; Day 3 after CCl4 :CHCl3, conclusion): a tendency to delay the recovery to normal level
- calcium content in liver (liver): not lowered to normal level
- blood sugar level (ddY strain mice [5]): somewhat higher than normal level

Source: US5162366A, “Antioxidant composition in vivo comprising enol form δ-lactone of diketogulonic acid” (Nissan Chemical Industries, Ltd., priority 1990, dated 1992)
